Measurements published in patent US9630894B2, “Energy efficient method and apparatus for the extraction of biomolecules from dilute aqueous solution” (DYNASEP INC., priority 2012, dated 2017).

How the values were obtained:
[1] = CCC extraction with DME of clarified fermentation broth from Clostridium acetobutylicum, GC and DNS assay; format: physicochemical
Description: This example describes three different runs of the CCC with fermentation broth from Clostridium acetobutylicum. […] The fermentation was intentionally interrupted prior to completion.
The extraction column operated at room temperature (˜25° C.) throughout the column. Periodic extract and raffinate samples were taken and analyzed for the constituents in the extract and raffinate discharges.
This example describes three different runs. In all cases, the mass of solvent to the mass of feed ratio (S/F) was 0.9. In all example the fermentation broth was first centrifuged to removal all cellular matter. Thus, the feed solution was clarified. In the case of the first run, the following components were measured via gas chromatograph (GC) analysis using external standard calibration. The external standard was run prior to analyzing the samples to provide individual calibration between peak area and the respective constituent under measure. […] Acetate was the conjugate base of acetic acid. Butyrate was the conjugate base of butyric acid. All components were quantified in the extract and raffinate. Since the extract and raffinate are mostly water and DME dissolves in water to approximately 20 wt. %, the samples were allowed to degas over a 24 hour period.
During the run, samples were taken of the extract and raffinate. In the case of the extract, the bulk DME was removed by reduction of pressure and addition of heat to flash the DME from the water and other solution constituents.
Extract and raffinate samples were collected at periodic intervals during the CCC testing. […] Glucose was measured via a DNS (3,5-dinitrosalicylic acid) assay.
In cases where the extract formed a two phase solution, the extract samples were diluted with distilled water to create a single phase and homogenous sample prior to GC. The dilution factor was then used to correct the GC measurements for concentrations prior to dilution.

[2] = Distribution coefficients of ABE mixtures between DME and aqueous phase in agitated pressure vessel, HPLC; format: physicochemical
Description: The compositions of the aqueous mixtures were based on concentrations typically produced in a cellulosic fermentation.
Mixtures were charged to a pressure vessel and agitated to provide adequate contacting between the aqueous and solvent (DME) phases. Heat tape was used to control the temperature of the liquid that was measured by thermocouples. Pressure and temperature measurements were taken every five minutes. After temperature and pressure stabilization agitation was ceased and the liquid phases were allowed to fully settle.
A mass balance was also performed on each component of the ABE and BE mixtures to determine a degree of accuracy of the results.

[3] = Run 3, Extract Bot, time 31 min
[4] = Run 3, Extract Bot, time 37 min
[5] = Run 3, Extract Top, time 31 min
[6] = Run 3, Extract Top, time 37 min

| concentration in sample [1, 3] [µg/mL] | concentration in sample [1, 4] [µg/mL] | concentration in sample [1, 5] [µg/mL] | concentration in sample [1, 6] [µg/mL] | concentration in sample ([1]; Run 3, Extract, time 22 min) [µg/mL] | concentration in sample ([1]; Run 3, Extract, time 27 min) [µg/mL] | concentration in sample ([1]; Run 3, Extract, time 43 min) [µg/mL] | concentration in sample ([1]; Run 3, Extract, time 70 min) [µg/mL] | concentration in sample ([1]; Run 3, Extract, time 74 min) [µg/mL] | concentration in sample ([1]; Run 3, Extract, time 78 min) [µg/mL] | concentration in sample ([1]; Run 3, Extract, time 82 min) [µg/mL] | concentration in sample ([1]; Run 3, Feed, time 0 min) [µg/mL] | concentration in sample ([1]; Run 3, Raffinate, time 22 min) [µg/mL] | concentration in sample ([1]; Run 3, Raffinate, time 27 min) [µg/mL] | concentration in sample ([1]; Run 3, Raffinate, time 31 min) [µg/mL] | concentration in sample ([1]; Run 3, Raffinate, time 37 min) [µg/mL] | concentration in sample ([1]; Run 3, Raffinate, time 43 min) [µg/mL] | concentration in sample ([1]; Run 3, Raffinate, time 70 min) [µg/mL] | concentration in sample ([1]; Run 3, Raffinate, time 74 min) [µg/mL] | concentration in sample ([1]; Run 3, Raffinate, time 78 min) [µg/mL] | Structure (SMILES) | other results |
| --- | --- | --- | --- | --- | --- | --- | --- | --- | --- | --- | --- | --- | --- | --- | --- | --- | --- | --- | --- | --- | --- |
| 1640 | 1880 | 910 | 1020 | 960 | 1000 | 1830 | 1620 | 1460 | 1600 | 1650 | 330 | 70 | 0 | 0 | 0 | 0 | 0 | 0 | 60 | CC(=O)C(C)O (centres unmarked) [Acetoin] | concentration in sample ([1]; Run 3, Raffinate, time 82 min): 0 µg/mL |
| 2290 | 2590 | 1980 | 2110 | 1130 | 1530 | 2110 | 1850 | 1710 | 1700 | 1920 | 800 | 340 | 400 | 420 | 640 | 890 | 1560 | 710 | 240 | CCO [Ethanol, ethanol] | concentration in sample ([1]; Run 3, Raffinate, time 82 min): 1140 µg/mL |
| – | – | – | – | – | – | – | – | – | – | – | – | – | – | – | – | – | – | – | – | O [Water, water] | DC ([2]; test ABE1, […] C., 104 psig): 0.15; DC ([2]; test ABE2, 38.3 ° C., 102 psig): 0.14; DC ([2]; test ABE3, 38.3 ° C., 103 psig): 0.13; DC ([2]; test ABE4, 38.0 ° C., 103 psig): 0.14; DC ([2]; test B1, […] C., 78 psig): 0.15; DC ([2]; test B2, 28.2 ° C., 83 psig): 0.11; DC ([2]; test B3, […] C., 86 psig): 0.11; DC ([2]; test BE1, 30.1 ° C., 85 psig): 0.13; DC ([2]; test BE2, 38.9 ° C., 107 psig): 0.13; DC ([2]; test BE3, 37.6 ° C., 103 psig): 0.12; DC ([2]; test BE3, 38.4 ° C., 106 psig): 0.12 |
